Results on eight compounds are retold here after ChEMBL document CHEMBL1148784, “Synthesis and structure-affinity relationships of new 4-(6-iodo-H-imidazo[1,2-a]pyridin-2-yl)-N-dimethylbenzeneamine derivatives as ligands for human beta-amyloid plaques” (J Med Chem, 2007).

The pKi is the negative decadic logarithm of the Ki, by convention in mol/L. A higher pKi goes with a low Ki.

pKi: −log10 of the molar value.

Amyloid-beta precursor protein, sequence (P05067 whole entry): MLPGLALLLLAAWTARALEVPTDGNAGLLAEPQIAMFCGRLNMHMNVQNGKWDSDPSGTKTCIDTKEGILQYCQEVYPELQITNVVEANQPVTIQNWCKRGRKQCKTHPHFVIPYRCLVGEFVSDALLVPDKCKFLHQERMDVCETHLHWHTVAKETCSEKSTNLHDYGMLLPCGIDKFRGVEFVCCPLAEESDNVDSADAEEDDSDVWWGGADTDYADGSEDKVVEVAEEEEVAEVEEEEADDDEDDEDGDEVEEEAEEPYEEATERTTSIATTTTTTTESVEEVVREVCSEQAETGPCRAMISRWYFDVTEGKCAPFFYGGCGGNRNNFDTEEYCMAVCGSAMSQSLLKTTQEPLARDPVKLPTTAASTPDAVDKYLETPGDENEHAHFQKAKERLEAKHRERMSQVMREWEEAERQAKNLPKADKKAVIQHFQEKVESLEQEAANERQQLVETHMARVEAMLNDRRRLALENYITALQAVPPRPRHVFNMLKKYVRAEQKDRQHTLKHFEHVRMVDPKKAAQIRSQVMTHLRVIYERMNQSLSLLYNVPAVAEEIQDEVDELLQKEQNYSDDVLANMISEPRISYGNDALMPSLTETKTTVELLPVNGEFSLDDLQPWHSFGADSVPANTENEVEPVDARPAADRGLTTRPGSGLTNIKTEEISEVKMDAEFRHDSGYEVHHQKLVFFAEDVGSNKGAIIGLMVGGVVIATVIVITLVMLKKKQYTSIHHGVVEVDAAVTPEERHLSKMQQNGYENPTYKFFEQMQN

This assay has as its target Amyloid-beta precursor protein (Homo sapiens, UniProt P05067). The experiment in a line: Binding affinity to human beta amyloid plaque in alzheimer's disease patient brain.
`CNc1ccc(-c2cn3cc(Br)ccc3n2)cc1C` had a pKi of under 6.00.
With `CN(C)c1ccc(-c2cn3cc(Br)cc(I)c3n2)cc1` the figure was 6.74.
`CN(C)c1ccc(-c2cn3cc(Br)cc(C#N)c3n2)cc1` gave a pKi of under 6.74.
The figure for `CC(=O)N(C)c1ccc(-c2cn3cc(Br)ccc3n2)cc1C` is under 6.00.
Compound `CNc1ccc(-c2cn3cc(SCC(N)=O)ccc3n2)cc1C` gave a pKi of under 6.00.
With `CNc1ccc(-c2cn3cc(SCCO)ccc3n2)cc1C` the figure was under 6.00; with `CN(C(=O)C(F)(F)F)c1ccc(-c2cn3cc(Br)ccc3n2)cc1Br`, under 6.00.
With `Cc1cc(-c2cn3cc(Br)ccc3n2)ccc1NC(=O)C(F)(F)F` the figure was under 6.00.
